Measurements from paper PMC6530907 (Biochemistry, 2019).
≈ marks a conversion by molar mass, not a printed value.

Assays:
Mtb [1] = details: cited from earlier work
MbtAtb = details: cited from earlier work; for Ki: read-out: Kiapp
Msm ΔEM-pMbtAtb = assay: microbe, parasite or virus in culture; assay type: cell-based, Mycobacterium smegmatis; details: for MIC potency compared to 1 (decrease): Fe-limiting media
MbtAtb (H10MbtA^opt) [2] = target: T1, MbtAtb (H10MbtA^opt) (Mycobacterium tuberculosis, UniProt P71716); assay type: biochemical
T1 sequence (P71716 whole entry, looked up, the tested form may be a part): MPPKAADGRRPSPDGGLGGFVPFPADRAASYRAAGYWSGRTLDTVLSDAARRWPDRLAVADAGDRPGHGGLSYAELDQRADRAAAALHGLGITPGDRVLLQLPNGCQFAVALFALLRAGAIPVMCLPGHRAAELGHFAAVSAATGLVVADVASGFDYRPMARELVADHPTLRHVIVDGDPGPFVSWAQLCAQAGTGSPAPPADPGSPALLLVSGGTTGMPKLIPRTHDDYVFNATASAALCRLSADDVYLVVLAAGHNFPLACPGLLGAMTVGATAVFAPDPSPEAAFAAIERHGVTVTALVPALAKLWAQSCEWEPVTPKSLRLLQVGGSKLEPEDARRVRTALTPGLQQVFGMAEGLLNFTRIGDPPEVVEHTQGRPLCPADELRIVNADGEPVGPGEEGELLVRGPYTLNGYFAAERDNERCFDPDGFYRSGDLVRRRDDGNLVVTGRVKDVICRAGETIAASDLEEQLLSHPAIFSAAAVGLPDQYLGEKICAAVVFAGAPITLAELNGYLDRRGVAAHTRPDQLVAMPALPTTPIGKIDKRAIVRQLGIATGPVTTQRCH

MbtAtb (H10MbtA^opt) [3] = target: T1, MbtAtb (H10MbtA^opt); assay type: biochemical; details: read-out: IC50 (H10MbtA^opt-dependent signal, salicyl-AMS fragments)
H10MbtA^opt = H10MbtA^opt (Mycobacterium tuberculosis, UniProt P71716); assay type: biochemical
Chain of H10MbtA^opt (P71716 whole entry, looked up): as the sequence (P71716 whole entry, looked up, the tested form may be a part) above

Mtb [4] = details: monotherapy at 5.6 or 16.7 mg/kg; cited from earlier work
Msm WT = assay: Growth inhibition assay; assay type: cell-based, Mycobacterium smegmatis; details: GASTD+Fe medium
Msm ΔE = assay: microbe, parasite or virus in culture; assay type: cell-based, Mycobacterium smegmatis; details: GASTD medium (Fe-limiting)
PPT-PNP coupling system = assay type: biochemical
MbtAtb (H10MbtA^opt) [5] = target: T1, MbtAtb (H10MbtA^opt); assay type: biochemical; details: Kiapp increased linearly with [S]
mammalian cells = details: cited from earlier work
[6] = mouse; cited from earlier work
Msm ΔM = assay type: cell-based, Mycobacterium smegmatis; details: GASTD+Fe medium

O=C(NS(=O)(=O)OCC1OC(n2cnc3c(=O)[nH]cnc32)C(O)C1O)c1ccccc1O (stereo not shown) [compound 11, salicyl-IMS]
Mtb MIC (Mtb [1]): > 100 µM
Ki (MbtAtb): 0.8 µM

COc1ncnc2c1ncn2[C@@H]1O[C@H](CNS(=O)(=O)NC(=O)c2ccccc2O)[C@@H](O)[C@H]1O [compound 6, salicyl-6-MeO-AMSN]
MIC potency compared to 1 (decrease) (Msm ΔEM-pMbtAtb): 6 fold
Kiapp higher than that of salicyl-AMS (1) (MbtAtb (H10MbtA^opt) [2]): 10 fold
decrease in tR compared with salicyl-AMS (1) (MbtAtb (H10MbtA^opt) [2]): ≈ 0.5 fold
increase in koff compared with salicyl-AMS (1) (MbtAtb (H10MbtA^opt) [2]): ≈ 2 fold
konapp lower than that of salicyl-AMS (1) (MbtAtb (H10MbtA^opt) [2]): 6 fold

O=C(NS(=O)(=O)O)c1ccccc1O [compound 8, salicyl-sulfamate]
IC50 (MbtAtb (H10MbtA^opt) [3]): ~1000 µM

Nc1ncnc2c1ncn2[C@@H]1O[C@H](COP(=O)(O)OP(=O)(O)OP(=O)(O)O)[C@@H](O)[C@H]1O [ATP]
KmATP (H10MbtA^opt): 13.0 ± 1.3 µM
kcatsal (ATP as the variable substrate) (H10MbtA^opt): 0.0193 ± 0.00067 s⁻¹

CN(C)c1ncnc2c1ncn2C1OC(COS(=O)(=O)NC(=O)c2ccccc2O)C(O)C1O (stereo not shown) [compound 12, salicyl-6-N,N-diMe-AMS]
Mtb MIC (Mtb [1]): 50 µM
Ki (MbtAtb): 0.38 µM

Nc1ncnc2c1ncn2[C@H]1C[C@H](O)[C@@H](COS(=O)(=O)NC(=O)c2ccccc2O)O1 [compound 2, salicyl-2´-dAMS]
MIC potency compared to 1 (decrease) (Msm ΔEM-pMbtAtb): 6 fold
worsening of the kinetic parameters relative to salicyl-AMS (1) (MbtAtb (H10MbtA^opt) [2]): ≤ 2 fold
decrease in Kiapp relative to salicyl-AMS (1) (MbtAtb; ATP-PPi assay): 0.5 fold

CNc1ncnc2c1ncn2[C@@H]1O[C@H](COS(=O)(=O)NC(=O)c2ccccc2O)[C@@H](O)[C@H]1O [5a, salicyl-6-N-Me-AMS]
MIC potency compared to 1 (decrease) (Msm ΔEM-pMbtAtb): no statistically significant difference
Kiapp higher than that of salicyl-AMS (1) (MbtAtb (H10MbtA^opt) [2]): ≈ 5.5 fold
decrease in tR compared with salicyl-AMS (1) (MbtAtb (H10MbtA^opt) [2]): ≈ 0.5 fold
increase in koff compared with salicyl-AMS (1) (MbtAtb (H10MbtA^opt) [2]): ≈ 2 fold
konapp lower than that of salicyl-AMS (1) (MbtAtb (H10MbtA^opt) [2]): ≈ 2.5 fold

O=C(NS(=O)(=O)OC[C@H]1O[C@@H](n2cnc3c(NC4CC4)ncnc32)[C@H](O)[C@@H]1O)c1ccccc1O [5b, salicyl-6-N-c-Pr-AMS]
MIC potency compared to 1 (decrease) (Msm ΔEM-pMbtAtb): 6 fold
Kiapp higher than that of salicyl-AMS (1) (MbtAtb (H10MbtA^opt) [2]): ≈ 5.5 fold
decrease in tR compared with salicyl-AMS (1) (MbtAtb (H10MbtA^opt) [2]): ≈ 0.5 fold
increase in koff compared with salicyl-AMS (1) (MbtAtb (H10MbtA^opt) [2]): ≈ 2 fold
konapp lower than that of salicyl-AMS (1) (MbtAtb (H10MbtA^opt) [2]): ≈ 2.5 fold

salicyl-AMSNMe [4b]
MIC potency compared to 1 (decrease) (Msm ΔEM-pMbtAtb): indistinguishable
improvement in Kiapp of 4b versus 4a (MbtAtb (H10MbtA^opt) [2]): 0.5 fold

O=C(O)c1ccccc1O [salicylic acid]
Kmsal (H10MbtA^opt): 0.31 ± 0.003 µM

Nc1ncnc2c1ncn2[C@@H]1O[C@H](COS(=O)(=O)NC(=O)c2ccccc2O)[C@@H](O)[C@H]1O [compound 1, 5´-O-[N-salicylsulfamoyl]adenosine]
MIC (Msm ΔEM-pMbtAtb; GASTD medium (Fe-limiting), listed as salicyl-AMS): 0.5 to 1.0 µg/mL
MIC (Msm ΔEM-pMbtAtb; GASTD+Fe medium (Fe-rich)): > 1,000 µg/ml
MIC (Msm ΔEM-pMbtAtb; Mycolicibacterium smegmatis, GASTD medium (Fe-limiting)): 0.5 to 1 µg/mL (≈ 1.07 to 2.14 µM)
MIC (Msm ΔEM-pMbtAtb; Mycolicibacterium smegmatis, GASTD+Fe medium (Fe-rich)): > 1000 µg/mL
Mtb growth in the mouse lung (Mtb [4]): significant reduction of Mtb growth in the mouse lung
mechanism of inhibition (kobs vs inhibitor concentration) (MbtAtb (H10MbtA^opt) [2]; linear kobs vs [I]): static, slow-onset mechanism of inhibition
MIC (Msm WT): >1000 µg/mL
MIC (Msm ΔE): 0.5 to 1 µg/mL
MIC (Msm ΔE; Mycolicibacterium smegmatis): 0.5 to 1 µg/mL (≈ 1.07 to 2.14 µM)
effect on the PPT-PNP coupling system (PPT-PNP coupling system): did not affect
MIC (Mtb [1]; Fe-limiting medium, comparable inoculum): 0.1 to 0.5 µg/mL
inhibition mechanism with respect to both MbtAtb substrates (MbtAtb (H10MbtA^opt) [5]): competitive inhibition mechanism
cytotoxicity against mammalian cells (mammalian cells): not cytotoxic
doses with in vivo toxicity [6]: ≥ 16.7 mg/kg
MIC (Msm ΔM): >1000 µg/mL

Nc1ncnc2c1ncn2[C@@H]1O[C@H](CNS(=O)(=O)NC(=O)c2ccccc2O)[C@@H](O)[C@H]1O [4a, salicyl-AMSN]
MIC potency compared to 1 (decrease) (Msm ΔEM-pMbtAtb): no statistically significant difference

Nc1nc(-c2ccccc2)nc2c1ncn2C1OC(COS(=O)(=O)NC(=O)c2ccccc2O)C(O)C1O (stereo not shown) [3a, salicyl-2-Ph-AMS]
MIC potency compared to 1 (decrease) (Msm ΔEM-pMbtAtb): no statistically significant difference

Nc1nc(Nc2ccccc2)nc2c1ncn2C1OC(COS(=O)(=O)NC(=O)c2ccccc2O)C(O)C1O (stereo not shown) [3b, salicyl-2-NHPh-AMS]
MIC potency compared to 1 (decrease) (Msm ΔEM-pMbtAtb): no statistically significant difference
